Consider four molecules from doi:10.1101/2022.05.31.494145v5 (biorxiv, 2024).

Test [1] addresses T1, DENV 3 NS5 MTase (dengue virus type 3, UniProt A9LID6).
T1 sequence (A9LID6 2491-2755 limits assumed): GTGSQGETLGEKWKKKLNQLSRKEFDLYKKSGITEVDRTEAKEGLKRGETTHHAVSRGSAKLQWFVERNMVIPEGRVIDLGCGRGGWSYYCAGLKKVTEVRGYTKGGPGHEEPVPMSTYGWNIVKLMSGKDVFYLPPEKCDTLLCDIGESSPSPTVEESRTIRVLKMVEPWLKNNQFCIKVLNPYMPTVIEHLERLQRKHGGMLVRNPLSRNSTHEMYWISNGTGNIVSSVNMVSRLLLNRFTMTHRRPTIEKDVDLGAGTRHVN
The test can be described thus: tryptophan fluorescence quenching. It is filed as binding.

The target in test [2] is T2, CHIKV nsP1 (Chikungunya virus strain S27-African prototype, UniProt Q8JUX6).
T2 sequence (Q8JUX6 1-535): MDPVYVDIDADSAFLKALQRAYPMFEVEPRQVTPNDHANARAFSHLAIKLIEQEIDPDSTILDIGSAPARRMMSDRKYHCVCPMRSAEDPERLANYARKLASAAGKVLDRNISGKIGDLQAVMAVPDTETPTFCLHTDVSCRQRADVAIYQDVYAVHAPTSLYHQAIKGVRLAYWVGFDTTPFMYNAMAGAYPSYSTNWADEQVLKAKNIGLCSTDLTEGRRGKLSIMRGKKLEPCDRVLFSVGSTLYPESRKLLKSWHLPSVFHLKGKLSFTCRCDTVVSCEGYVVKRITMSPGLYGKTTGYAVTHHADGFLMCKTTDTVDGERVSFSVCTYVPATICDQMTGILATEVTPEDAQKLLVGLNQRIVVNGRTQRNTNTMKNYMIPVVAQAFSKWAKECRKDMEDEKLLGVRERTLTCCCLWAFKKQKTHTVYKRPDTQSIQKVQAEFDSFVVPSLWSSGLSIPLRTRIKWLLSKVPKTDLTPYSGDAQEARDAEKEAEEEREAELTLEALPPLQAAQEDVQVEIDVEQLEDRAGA
The test can be described thus: tryptophan fluorescence quenching. It is filed as binding.

Usually Kd stands for the concentration at which binding is half-saturated. Low readings indicate higher affinity, high ones lower affinity.

Regarding `O=C(/C=C/c1ccc(O)c(O)c1)OCCc1ccccc1` [CAPE, caffeic acid phenethyl ester], the Kd is 37.9 ± 6.32 µM in test [1] and 30.6 ± 5.33 µM in test [2].

As for `Nc1nc2c(ncn2[C@@H]2O[C@H](COP(=O)(O)OP(=O)(O)OP(=O)(O)O)[C@@H](O)[C@H]2O)c(=O)[nH]1` [GTP], the Kd in test [1] came to 3.03 ± 1 µM; in test [2] it was 169 ± 21.3 µM.

Turning to `O=c1c(O)c(-c2ccc(O)cc2)oc2c(O)c(O)cc(O)c12` [HC, herbacetin], the dissociation constant Kd in test [1] stood at 13.3 ± 2.69 µM; in test [2] it was 6.52 ± 0.55 µM.

As to `C[S+](CC[C@H](N)C(=O)O)C[C@H]1O[C@@H](n2cnc3c(N)ncnc32)[C@H](O)[C@@H]1O` (some centres unmarked) [SAM], the Kd in test [1] amounted to 6.67 ± 2.57 µM; in test [2], 10.9 ± 5.15 µM.
